Results taken from US20080233561A1, “Method for Measuring Cytopathic Effect Due to Viral Infection in Cells Using Electric Cell-Substrate Impedance Sensing” (UNIVERSITY OF LOUISVILLE RESEARCH FOUNDATION, INC., priority 2005, published 2008).

System: PR8 influenza A virus (influenza/A/PR/8/34 virus)
Format: cell-based
Conditions: MDCK cells pretreated 1 hour with 20 mM NH4Cl and kept under NH4Cl; […]; approximately 48 hours PI; 4,000 Hz; listed as ammonium chloride (NH4Cl)

`Cl.N` [NH4Cl, ammonium chloride] was tested, and the “signal resistance (ECIS) of the cell monolayer following influenza inoculation” value was “the reduction in signal resistance due to influenza infection is abolished”.
